Patent publication US20230321085A1, “COMPOUND FOR USE IN THE TREATMENT OF DRY MOUTH” (ASAHI PHARMA CO., LTD., priority 2020, published 2023)

Experiments:
awake rats = assay: effect on salivation in awake rats (oral administration); type: in vivo, rat; conditions: for duration of effect on salivation: oral administration to awake rats
Experimental: Pilocarpine therefore alleviates the dry mouth symptoms, but it leads to hyperhidrosis as a further side effect. Moreover, experiments in rats have shown that the effect of pilocarpine on salivation is only short-lived and that initial salivation levels are approached after about 60 minutes (FIG. 1).
Moreover, experiments have shown that its effect on salivation is long-lasting (FIG. 2 as well as FIGS. 3, 4 and 5).

healthy subjects = assay: Phase 1 study of the effect of pilocarpine on salivary secretion in healthy subjects; type: in vivo, human; conditions: for participants reporting hyperhidrosis as side effect: periods 1 to 4
Experimental: A Phase 1 study to investigate the effect of pilocarpine on salivary secretion was conducted in 12 healthy subjects. The study was conducted as a randomized, subject- and investigator-blinded, placebo-controlled, oral dose clinical study using a 5-way balanced extra period design. Pilocarpine capsules containing 2.5 mg were administered orally (1 capsule for a 2.5 mg dose, 2 capsules for a dose of 5.0 mg pilocarpine and 4 capsules for a dose of 10 mg pilocarpine). Subjects were admitted to the clinical unit on day 1 and were residential for a period of 6 days and 5 nights. Subjects were randomized to 1 of 4 treatment sequences on day 1 prior to study drug administration. Each study period was approximately 1 day and subjects received the different oral doses of the study drug (pilocarpine or placebo to match) in periods 1 through 5. There was a 4-hour saliva collection period following every dose and a washout period of at least 24 hours between doses. To assess the pharmacodynamic effect of pilocarpine on saliva secretion, saliva samples were collected over 5-minute intervals from pre-dose until 4 hours post-dose at the timepoints 0.5, 0.75, 1.0, 1.5, 2.0, 3.0 and 4.0 h.

[1] = test system: healthy non-elderly and elderly male and female subjects; assay: multiple ascending oral dose clinical study of the compound of the invention (second part); type: in vivo, human; conditions: multiple oral doses 10, 30, 100, 150 mg
Experimental: The second part of the study investigated, multiple ascending oral doses in 4 cohorts (cohorts 2.1 to 2.4). Each cohort consisted of 12 healthy non-elderly male and female subjects, one optional cohort (cohort 2.5) consisting of 12 healthy nonelderly male and female subjects and one cohort (cohort 2.6) consisting of 12 healthy elderly male and female subjects who were randomized to receive the compound or matching placebo in a 3:1 ratio.
Actual dose levels were 10, 30, 100 and 150 mg of the compound (cohorts 2.1 to 2.4, respectively). The optional cohort 2.5 was not enrolled. The actual dose level for the elderly cohort (cohort 2.6) was 150 mg of the compound.
Sentinel dosing was employed for all cohorts. The first 2 subjects within a cohort (1 subject received the compound and 1 subject received matching placebo) were dosed at least 5 minutes apart. These 2 subjects were monitored for safety for 48 hours after receiving the first dose while dosing was continued. The remaining 10 subjects (8 with the compound and 2 with matching placebo) were divided into 2 sub-cohorts and were dosed at least 48 hours after the first 2 subjects with 48 hours between the 2 sub-cohorts.

[2] = test system: healthy non-elderly male and female subjects; assay: single ascending oral dose clinical study of the compound of the invention (first part); type: in vivo, human; conditions: single oral dose 1, 3, 10, 30, 100, 150 mg
Experimental: In the first part of a randomized, subject- and investigator-blinded, placebo-controlled, single ascending oral dose, parallel group study comprising of 7 cohorts (cohorts 1.1 to 1.7) the compound of the invention was administered at dose levels of 1, 3, 10, 30, 100, and 150 mg. Each cohort consisted of 8 healthy non-elderly male and female subjects who were randomized to receive the compound or matching placebo in a 3:1 ratio.
After a screening period of 21 days, eligible subjects who had signed an informed consent form (ICF) to participate in the study were residential for a single treatment period of 5 days/4 nights. Subjects were admitted to the clinical unit on day −1. After randomization on day 1, subjects received a single oral dose of the compound or matching placebo under fasting. Each cohort was completed with an end-of-study visit, which took place 5 to 9 days after the last pharmacokinetic sample had been collected (or early discontinuation from the study).

[3] = clinical study with a reference M3 PAM (similar to first study in Example 2); type: in vivo, human; conditions: dose levels of 1, 3, 10, 30 and 90 mg, FIG. 6
Experimental: In a study similar to the first study in Example 2, a known M3 positive allosteric modulator reference compound (example 8 of EP 2 963 036) with the following structure
was administered in dose levels of 1, 3, 10, 30 and 90 mg.

Row | SMILES | duration of effect on salivation (awake rats) [min] | time after which initial salivation levels are approached (awake rats; rats, FIG. 1) | sweating (healthy subjects; clinically relevant doses (5 mg and 10 mg qd)) | effect on salivation (healthy subjects; human trials, 2.5, 5 and 10 mg pilocarpine) | participants reporting hyperhidrosis as side effect (healthy subjects; pilocarpine dose of 5 mg) [%] | participants reporting hyperhidrosis as side effect (healthy subjects; pilocarpine dose of 10 mg) [%] | hyperhidrosis as a side effect [1] | salivary secretion rates ([1]; FIG. 5) | hyperhidrosis as a side effect [2] | salivary secretion rates ([2]; FIG. 4) | impact on salivation [3]
1 | CC[C@@H]1C(=O)OC[C@@H]1Cc1cncn1C [pilocarpine] | ≤ 60 | about 60 minutes | a significant number of the patients suffered from sweating | increased salivation | 8.3 | 50 | – | – | – | – | –
2 | C[C@@H]1CCCN1Cc1sc(NC(=O)c2cnc(N3CCN(CCC(=O)O)[C@@H](C)C3)cn2)nc1-c1cc(Cl)cs1 [compound of the invention] | ≥ 480 | – | – | – | – | – | not reported | increased salivary secretion rates | not reported | increased salivary secretion rates | –
3 | CC[C@@H]1CCCN1Cc1sc(NC(=O)c2cnc(N3CCC(C(=O)O)CC3)cn2)nc1-c1ccc(OC)c(C(F)(F)F)c1 [example 8 of EP 2 963 036] | – | – | – | – | – | – | – | – | – | – | do not significantly impact salivation
